The text below walks through data of article PMC6201084 (Antimicrobial Agents and Chemotherapy, 2018).

Read-outs that look alike come from different tables or passages of the source.

Test [1] has as its target neuraminidase (NA) of influenza B/Minnesota/23/2015 (WT-D197) (Influenza B virus, UniProt A0A1S5RAG6). Format: biochemical. The settings on record: three independent experiments, read-out: IC50 (nM), mean ± SD.
The target in test [2] is neuraminidase (NA) of influenza B/England/598/2014 (WT-H273) (Influenza B virus, UniProt A0A1S5RAG6). Format: biochemical.
Chain of neuraminidase (NA) of influenza B/England/598/2014 (WT-H273) (A0A1S5RAG6 entry or part of it, added parts left off): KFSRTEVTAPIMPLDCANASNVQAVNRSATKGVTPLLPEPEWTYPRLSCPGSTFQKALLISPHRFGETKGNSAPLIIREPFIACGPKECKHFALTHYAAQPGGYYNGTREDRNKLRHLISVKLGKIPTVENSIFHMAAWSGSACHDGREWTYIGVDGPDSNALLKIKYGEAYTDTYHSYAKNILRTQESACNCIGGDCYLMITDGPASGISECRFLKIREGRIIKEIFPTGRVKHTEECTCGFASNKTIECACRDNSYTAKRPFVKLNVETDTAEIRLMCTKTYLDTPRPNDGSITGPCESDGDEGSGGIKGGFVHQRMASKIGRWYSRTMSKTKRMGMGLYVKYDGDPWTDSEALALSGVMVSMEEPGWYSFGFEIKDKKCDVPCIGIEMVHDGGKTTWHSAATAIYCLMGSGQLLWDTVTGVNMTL

Chain of neuraminidase (NA) of influenza B/Minnesota/23/2015 (WT-D197) (A0A1S5RAG6 entry or part of it, added parts left off): as above

Usually IC50 stands for the midpoint of a concentration-inhibition curve. For the compound `CCC(CC)[C@H](NC(C)=O)[C@@H]1[C@H](O)[C@@H](C(=O)O)C[C@H]1N=C(N)N` [Peramivir, peramivir], the IC50 in test [1] is 1 ± 0.1 nM; in test [2] (WT-H273 virus, three independent experiments, read-out: IC50 (nM), mean ± SD) it was 1 ± 0.05 nM; in test [2] (approximate value given in discussion for wild-type influenza B viruses, read-out: IC50 for wild-type influenza B viruses), about 1 nM.
